Measurements from patent publication US11274073B2, “TRPV1 modulator compounds” (ANTALGENICS, S.L., priority 2017, dated 2022).

Tests used:
rat TRPV1 channel [1] = target: T1, rat TRPV1 channel (Rattus norvegicus, UniProt O35433); experiment: Dose response measurements (EC50/IC50), calcium microfluorometry on TRPV1-SH-SY5Y cells; format: cell-based; conditions: n=3 in 3 independent experiments; for EC50: TRPV1 activation; for IC50: TRPV1 blockage
T1 construct: expressed in transfected cells; host or cells: SH-SY5Y (human neuroblastoma) stably expressing rat TRPV1, under puromycin selection
T1 sequence (O35433 whole entry): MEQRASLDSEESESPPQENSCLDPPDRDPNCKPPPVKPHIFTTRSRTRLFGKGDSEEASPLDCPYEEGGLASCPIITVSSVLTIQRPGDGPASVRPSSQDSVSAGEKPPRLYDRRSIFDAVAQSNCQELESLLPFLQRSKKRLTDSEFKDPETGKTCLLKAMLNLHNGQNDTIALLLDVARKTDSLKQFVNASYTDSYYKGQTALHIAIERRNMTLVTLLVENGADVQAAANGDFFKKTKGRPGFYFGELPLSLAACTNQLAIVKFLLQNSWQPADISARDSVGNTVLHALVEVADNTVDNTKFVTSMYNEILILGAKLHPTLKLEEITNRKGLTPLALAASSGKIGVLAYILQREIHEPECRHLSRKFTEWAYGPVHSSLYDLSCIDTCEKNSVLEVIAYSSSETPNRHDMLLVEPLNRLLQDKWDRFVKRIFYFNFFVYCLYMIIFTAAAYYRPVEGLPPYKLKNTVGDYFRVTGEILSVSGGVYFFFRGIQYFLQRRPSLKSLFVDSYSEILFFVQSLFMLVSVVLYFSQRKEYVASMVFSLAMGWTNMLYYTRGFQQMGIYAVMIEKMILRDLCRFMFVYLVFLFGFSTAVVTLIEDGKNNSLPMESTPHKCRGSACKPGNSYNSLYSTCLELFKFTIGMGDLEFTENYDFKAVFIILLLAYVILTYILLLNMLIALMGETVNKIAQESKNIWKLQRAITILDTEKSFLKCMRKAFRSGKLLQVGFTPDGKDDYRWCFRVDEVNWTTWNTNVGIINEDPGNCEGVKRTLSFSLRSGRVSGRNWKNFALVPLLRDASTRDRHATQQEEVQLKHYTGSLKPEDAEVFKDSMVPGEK
Protocol: (§1) The activity of the compounds was determined on TRPV1 expressing cells (TRPV1-SH-SY5Y) by Calcium microfluorometry assay.
(§2) SH-SY5Y cells stably expressing rat TRPV1 channel (SH-SY5Y-TRPV1) were grown in Earle's minimum essential medium (MEM) containing 10% (v/v) of FCS, 1% nonessential amino acids, 2 mM L-glutamine, 100 μg/ml streptomycin, 100 U/ml penicillin, and 0.4 μg/ml puromycin in a humidity-controlled incubator with 5% CO2 and at 37° C. For fluorescence assays, cells expressing TRPV1 channel (TRPV1-SH-SY5Y) were seeded in 96-well plates (Corning Incorporated, Corning, N.Y.) at a cell density of 40,000 cells 2 days before treatment. The day of treatment the medium was replaced with 100 μL of the dye loading solution Fluo-4 NW supplemented with probenecid 2.5 mM. After incubation at 37° C. in a humidified atmosphere of 5% CO2 for 60 minutes, plates were transferred to a fluorescence plate reader (Polastar Omega BMG Labtech). The baseline fluorescence of Fluo-4 dye ([…]) was recorded for 4 cycles. […] The antagonist (10 μM Ruthenium Red for TRPV1) was added for the blockade. The changes in fluorescence intensity were recorded during 10 cycles more.
Normalized responses (%) versus log [μM] were adjusted to a non-linear fit with variable slope, a four-parameter dose-response curve Y=100/(1+10^((LogEC50−X)*HillSlope)) where […] or just dose-response curve Y=100/(1+10^((LogEC50−X))). EC50 are expressed with 95% confident interval followed by r^2 for regression adjustment. All data are expressed as mean±standard error of the mean […]. Each condition was assessed by triplicate (n=3) in 3 independent experiments (N=3).

rat TRPV1 channel [2] = target: T1, rat TRPV1 channel; experiment: Calcium microfluorometry assay on TRPV1-SH-SY5Y cells, single concentration 10 μM; format: cell-based; conditions: for TRPV1 activation at 10 μM (% ± SD): compound 10 μM, Fluo-4 NW fluorescence, Cap (10 μM capsaicin) = 100%; for TRPV1 blockage at 10 μM (% ± SD): compound 10 μM before stimulation with 10 μM capsaicin, RR (10 μM Ruthenium Red) = 100%
Protocol: as §1, §2

C57-mice = experiment: CFA-induced paw inflammation model of inflammatory pain, thermal hyperalgesia (paw withdrawal latency); format: in vivo; conditions: 24 h after CFA
Protocol: Data are given as mean±SEM n=6. 2-way ANOVA with Bonferroni post hoc test. *P<0.05; **P<0.01, ***P<0.001, […].
One of the compounds with higher potency (Ex-37) was selected to be tested in a model of inflammatory pain. C57-mice (≈30 g) were used for the study. C57BL/6 were obtained from Janvier, France. Complete Freund's adjuvant (CFA) emulsion (1:1 oil/saline, 0.5 mg/ml) was injected into the plantar surface (10 μl) of the right hind paw (Garcia-Martinez et al., 2006). 24 h after CFA injection, compound Ex-37 was administered intravenously (at 1 mg/kg, 3 mg/kg or 10 mg/kg) or intraplantar (at 10 mg/kg, 30 mg/kg or 100 mg/kg)) on the right hind paw. Thermal hyperalgesia was monitored 24 h after CFA injection and up to 2 h after administering the compound with an Ugo Basile Dynamic Plantar Aesthesiometer as reported previously (Garcia-Martinez et al., 2006). In brief, mice were habituated to an apparatus consisting of individual Perspex boxes on an elevated glass table. A mobile radiant heat source was located under the table and focused on the hind paw. Paw withdrawal latencies were defined as the time taken by the mouse to remove its hind paw from the heat source. A cutoff point of 25 s was set to prevent tissue damage.

Compound	EC50 (rat TRPV1 channel [1])	TRPV1 activation at 10 μM (% ± SD) (rat TRPV1 channel [2])	TRPV1 blockage at 10 μM (% ± SD) (rat TRPV1 channel [2])	other results
CCCCCCCCCCCC(=O)OCC(=O)NCc1ccc(O)c(OC)c1 [Ex-36, 2-((4-hydroxy-3-methoxy-benzyl)amino)-2-oxoethyl dodecanoate]	0.08 ± 0.03 µM	74.80 ± 8.30%	–	–
CC(C)=CCC/C(C)=C/C(=O)OCC(=O)NCc1cc(O)c(O)cc1I [Ex-55, (E)-2-((4,5-dihydroxy-2-iodobenzyl)amino)-2-oxoethyl 3,7-dimethylocta-2,6-dienoate]	–	–	104.22 ± 12.65%	IC50 (rat TRPV1 channel [1]): 6.82 ± 1.38 µM
CCCCC/C=C\C/C=C\C/C=C\C/C=C\CCCC(=O)OCC(=O)NCCc1cc(O)c(O)cc1I [Ex-65, (5Z,8Z,11Z,14Z)-2-((4,5-dihydroxy-2-iodophenethyl)-amino)-2-oxoethyl icosa-5,8,11,14-tetraenoate]	–	–	6.71 ± 2.18%	–
CCCCCCCCCCCC(=O)OCC(=O)NCc1cc(OC)c(O)cc1I [Ex-37, 2-((4-hydroxy-2-iodo-5-methoxybenzyl)amino)-2-oxoethyl dodecanoate]	–	–	43.18 ± 10.07%	IC50 (rat TRPV1 channel [1]): 0.86 ± 0.51 µM; antinociceptive effect in the thermal hyperalgesia test, intraplantar (C57-mice; intraplantar at 10, 30 or 100 mg/kg on the right hind paw, FIG. 2): showed antinociceptive effects; antinociceptive effect in the thermal hyperalgesia test, intravenous (C57-mice; intravenously at 1, 3 or 10 mg/kg, FIG. 1): showed antinociceptive effects
COc1cc(CNC(=O)COC(=O)CC(C)C)ccc1O [Ex-20, 2-((4-hydroxy-3-methoxy-benzyl)amino)-2-oxoethyl 3-methylbutanoate]	–	35.82 ± 3.48%	–	–

Further lines, with some results ahead:

EC50 (rat TRPV1 channel [1])	TRPV1 activation at 10 μM (% ± SD) (rat TRPV1 channel [2])	TRPV1 blockage at 10 μM (% ± SD) (rat TRPV1 channel [2])	Compound	other results
0.28 ± 0.08 µM	75.90 ± 2.49%	–	COc1cc(CNC(=O)COC(=O)/C=C(\C)CCC=C(C)C)ccc1O [Ex-32, (E)-2-((4-hydroxy-3-methoxy-benzyl)amino)-2-oxoethyl 3,7-dimethylocta-2,6-dienoate]	–
0.015 ± 0.02 µM	83.71 ± 6.00%	–	CC(C)=CCCC(C)=CCC/C(C)=C/CC/C=C(\C)CC/C=C(\C)CCC(=O)OCC(=O)NCc1ccc(O)c(O)c1 (stereo in doubt) [Ex-56, (4E,8E,12E,16E)-2-((3,4-dihydroxybenzyl)amino)-2-oxoethyl 4,8,13,17,21-pentamethyldocosa-4,8,12,16,20-pentaenoate]	–
0.11 ± 0.02 µM	77.42 ± 5.17%	–	CC(C)=CCC/C(C)=C/C(=O)OCC(=O)NCc1ccc(O)c(O)c1 [Ex-54, (E)-2-((3,4-dihydroxybenzyl)amino)-2-oxoethyl 3,7-dimethylocta-2,6-dienoate]	–
0.04 ± 0.008 µM	79.31 ± 6.41%	–	COc1cc(CNC(=O)COC(=O)CC/C(C)=C/CC/C(C)=C/CC/C=C(\C)CCC=C(C)CCC=C(C)C)ccc1O (stereo in doubt) [Ex-52, (4E,8E,12E,16E)-2-((4-hydroxy-3-methoxybenzyl)-amino)-2-oxoethyl 4,8,13, 17,21-pentamethyldocosa-4,8,12,16,20-pentaenoate]	–
–	88.12 ± 9.76%	–	CC(C)=CCC/C(C)=C/C(=O)OCC(=O)NCCc1ccc(O)c(O)c1 [Ex-58, (E)-2-((3,4-dihydroxyphenethyl)amino)-2-oxoethyl 3,7-dimethylocta-2,6-dienoate]	–
